{
  "source": "paper PMC3628110",
  "about": "“Mechanism for priming DNA synthesis by yeast DNA Polymerase α” (eLife, 2013)",
  "key": {"[1]": {"target": "T1, Pol α (catalytic core, 349–1258) (Saccharomyces cerevisiae, UniProt P13382, R508A/N509A/D998N)", "T1 construct": "gene POL1; catalytic core, residues 349-1258 (910 aa); N-terminal dual His/Strep tag, TEV-cleaved; E. coli BL21(DE3)Rosetta2", "T1 sequence (P13382 349-1258 R508A/N509A/D998N)": "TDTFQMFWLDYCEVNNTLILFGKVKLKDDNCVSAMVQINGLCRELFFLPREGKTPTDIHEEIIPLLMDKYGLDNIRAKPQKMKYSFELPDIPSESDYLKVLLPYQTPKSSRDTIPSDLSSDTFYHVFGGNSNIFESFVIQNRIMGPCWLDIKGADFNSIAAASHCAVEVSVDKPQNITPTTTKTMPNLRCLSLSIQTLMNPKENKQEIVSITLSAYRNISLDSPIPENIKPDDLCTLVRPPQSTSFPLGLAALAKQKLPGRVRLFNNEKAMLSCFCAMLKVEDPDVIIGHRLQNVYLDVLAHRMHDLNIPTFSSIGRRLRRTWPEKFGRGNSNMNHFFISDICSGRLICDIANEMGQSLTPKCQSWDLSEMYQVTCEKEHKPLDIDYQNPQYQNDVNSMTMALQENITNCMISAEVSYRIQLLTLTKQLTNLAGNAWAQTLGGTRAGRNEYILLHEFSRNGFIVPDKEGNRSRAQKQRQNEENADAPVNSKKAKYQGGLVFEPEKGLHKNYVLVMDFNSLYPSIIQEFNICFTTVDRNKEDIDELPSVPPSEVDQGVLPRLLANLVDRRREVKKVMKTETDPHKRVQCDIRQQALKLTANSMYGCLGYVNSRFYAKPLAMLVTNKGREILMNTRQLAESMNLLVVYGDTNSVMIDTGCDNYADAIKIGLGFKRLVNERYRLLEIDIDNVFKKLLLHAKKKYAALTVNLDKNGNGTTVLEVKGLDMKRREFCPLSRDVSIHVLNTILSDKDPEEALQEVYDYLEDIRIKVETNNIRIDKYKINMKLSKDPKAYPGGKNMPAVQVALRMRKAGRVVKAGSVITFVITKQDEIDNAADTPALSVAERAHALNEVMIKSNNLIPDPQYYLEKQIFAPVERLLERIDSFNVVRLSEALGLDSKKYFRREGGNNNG", "experiment": "primer extension assay, denaturing gel", "type": "biochemical", "details": "labelled compound ([α-32P]dATP); poly(dT) 70mer template; up to 10 μM protein; 90 s"}, "[2]": {"target": "T1, Pol α (catalytic core, 349–1258)", "experiment": "X-ray crystal structure of ternary complex, […] Å", "type": "binding", "details": "RNA 10mer primer/DNA 25mer template; 5 mM dGTP; 200 mM Mg acetate; polymerase active site; primer extended by dGMP during crystallization (mass spectrometry)"}, "[3]": {"target": "T2, DNA polymerase alpha catalytic core (Pol α), R508A N509A D998N (Saccharomyces cerevisiae, UniProt P13382 349-1258, R508A;N509A;D998N)", "T2 sequence": "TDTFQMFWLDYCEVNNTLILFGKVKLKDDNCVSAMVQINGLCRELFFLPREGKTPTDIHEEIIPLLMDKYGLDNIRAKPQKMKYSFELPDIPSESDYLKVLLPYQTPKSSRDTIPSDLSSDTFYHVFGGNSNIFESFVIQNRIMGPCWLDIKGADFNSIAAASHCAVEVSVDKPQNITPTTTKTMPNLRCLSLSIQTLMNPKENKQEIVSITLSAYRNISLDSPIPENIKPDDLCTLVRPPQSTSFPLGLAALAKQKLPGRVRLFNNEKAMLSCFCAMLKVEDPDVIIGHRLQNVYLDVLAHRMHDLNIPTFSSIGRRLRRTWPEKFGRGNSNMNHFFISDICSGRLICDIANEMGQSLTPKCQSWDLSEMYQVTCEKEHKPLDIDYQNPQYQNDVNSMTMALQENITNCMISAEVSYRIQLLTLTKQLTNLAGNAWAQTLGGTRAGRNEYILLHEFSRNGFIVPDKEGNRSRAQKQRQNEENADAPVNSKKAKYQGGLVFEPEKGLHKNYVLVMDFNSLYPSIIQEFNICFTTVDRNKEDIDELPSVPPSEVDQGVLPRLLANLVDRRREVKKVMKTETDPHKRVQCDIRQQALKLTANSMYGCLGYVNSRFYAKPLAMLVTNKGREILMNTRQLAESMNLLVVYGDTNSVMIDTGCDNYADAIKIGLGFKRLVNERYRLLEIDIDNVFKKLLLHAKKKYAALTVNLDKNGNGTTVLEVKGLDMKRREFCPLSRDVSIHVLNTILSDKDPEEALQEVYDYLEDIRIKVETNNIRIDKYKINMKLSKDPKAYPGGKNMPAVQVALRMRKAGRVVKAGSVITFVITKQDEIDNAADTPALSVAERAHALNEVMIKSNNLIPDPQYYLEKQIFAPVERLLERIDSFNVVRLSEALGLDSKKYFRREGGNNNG", "experiment": "X-ray crystallography (3.1 Å); dGTP (5 mM) bound in active site; 200 mM Mg acetate; Crystals only: binary 0.1 M Bicine pH 8.0, 12% PEG 3350, 10 mM MgCl2, 18 °C; ternary 200 mM Mg acetate, 10% PEG 8000, 5 mM dGTP, micro-batch (3% glycerol). Primer extension assays are turnover only and not listed.", "details": "protein: recombinant; tags: N-terminal dual His/streptavidin tag, TEV-cleaved; 5' overhang 13 nt on template after extension (15 nt before); 12 bp"}, "[4]": {"target": "T3, DNA polymerase alpha catalytic core (Pol α), wild type (Saccharomyces cerevisiae, UniProt P13382 349-1258)", "T3 sequence": "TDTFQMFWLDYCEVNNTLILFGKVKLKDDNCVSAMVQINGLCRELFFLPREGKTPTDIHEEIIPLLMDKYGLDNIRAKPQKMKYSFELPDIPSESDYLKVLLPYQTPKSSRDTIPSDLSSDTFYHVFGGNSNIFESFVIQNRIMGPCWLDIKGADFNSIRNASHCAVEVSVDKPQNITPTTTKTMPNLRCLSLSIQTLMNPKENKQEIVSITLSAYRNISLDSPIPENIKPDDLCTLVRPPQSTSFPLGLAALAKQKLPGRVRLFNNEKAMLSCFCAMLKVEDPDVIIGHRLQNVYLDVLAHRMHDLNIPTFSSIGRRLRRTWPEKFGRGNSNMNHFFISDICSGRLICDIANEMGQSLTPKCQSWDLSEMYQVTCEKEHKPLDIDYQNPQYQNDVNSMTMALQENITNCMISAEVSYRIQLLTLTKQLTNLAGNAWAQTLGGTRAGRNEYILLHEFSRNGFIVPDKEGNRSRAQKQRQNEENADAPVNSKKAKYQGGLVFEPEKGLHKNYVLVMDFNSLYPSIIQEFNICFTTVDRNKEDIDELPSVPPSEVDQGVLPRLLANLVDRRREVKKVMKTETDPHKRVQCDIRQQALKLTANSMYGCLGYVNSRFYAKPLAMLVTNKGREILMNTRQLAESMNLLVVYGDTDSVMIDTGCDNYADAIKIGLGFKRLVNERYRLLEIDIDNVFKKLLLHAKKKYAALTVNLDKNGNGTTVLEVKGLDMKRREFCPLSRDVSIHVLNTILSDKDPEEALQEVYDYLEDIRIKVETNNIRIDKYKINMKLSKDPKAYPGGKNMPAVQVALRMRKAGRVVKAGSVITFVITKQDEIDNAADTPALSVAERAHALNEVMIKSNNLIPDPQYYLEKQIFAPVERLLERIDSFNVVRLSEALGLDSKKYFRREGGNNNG", "experiment": "X-ray crystallography (3.0 Å); 10 mM MgCl2, 1 mM ddCTP in drop (no ddCTP density); Crystals only: binary 0.1 M Bicine pH 8.0, 12% PEG 3350, 10 mM MgCl2, 18 °C; ternary 200 mM Mg acetate, 10% PEG 8000, 5 mM dGTP, micro-batch (3% glycerol). Primer extension assays are turnover only and not listed.", "details": "protein: recombinant; tags: N-terminal dual His/streptavidin tag, TEV-cleaved; 5' overhang 6 nt on template; 10 bp"}},
  "data": [
    {"molecule": "Nc1ncnc2c1ncn2[C@H]1C[C@H](O)[C@@H](COP(=O)(O)OP(=O)(O)OP(=O)(O)O)O1", "note": "[dATP]", "values": [
      {"measurement": "primer extension assay, denaturing gel", "setting": "[1]", "result": "Residual activity of the D998N R508A N509A Pol α mutant was demonstrated by the primer extension assay"}
    ]},
    {"molecule": "Nc1nc2c(ncn2[C@H]2C[C@H](O)[C@@H](COP(=O)(O)OP(=O)(O)OP(=O)(O)O)O2)c(=O)[nH]1", "note": "[dGTP]", "values": [
      {"measurement": "X-ray crystal structure of ternary complex, 3.1 Å", "setting": "[2]", "result": "the R508A, N509A, D998N Pol α mutant was used"}
    ]},
    {"molecule": "RNA 10mer primer extended in crystal by two dG / DNA 25mer template (ternary complex) (DNA:RNA, strand 1 is RNA 10mer (S5) plus two 3' deoxyguanosines; strand 2 DNA) ?: CGGCGGGCAGGG DNA: TGAGCGTGTGTACCCCTGCCCGCCG", "values": [
      {"measurement": "binding result", "setting": "[3]", "result": "binds"}
    ]},
    {"molecule": "RNA 10mer primer / DNA 16mer template (binary complex) (DNA:RNA, strand 1 RNA, strand 2 DNA) ?: AGGCGGGCAG DNA: TTTTCGCTGCCCGCCT", "values": [
      {"measurement": "binding result", "setting": "[4]", "result": "binds"}
    ]}
  ]
}
